Test results reported in patent US20080090805A1, “CB-1 MODULATING COMPOUNDS AND THEIR USE” (ACADIA PHARMACEUTICALS INC., priority 2005, published 2008).

Tests used:
NSA mice = experiment: Hypothermia study (block of CP 55,940-induced hypothermia); format: in vivo; set-up: Hypothermia 3 mg/kg / Hypothermia 0.3 mg/kg: unit not given here; conditions: for Hypothermia ID50: block of CP 55,940-induced hypothermia
Protocol: . […] Core body temperatures were then obtained at various time points following CP 55,940 administration. Core body temperature (to the nearest 0.1° C.) was obtained by rectal probe.

[1] = Clearance study, liver microsomes (rats); conditions: rat, pH 7.4
[2] = Clearance study, liver microsomes (human); conditions: pH 7.4

Row | microsomal CLint at 1 μM [1] [µL/min/mg] | microsomal CLint at 1 μM [2] [µL/min/mg] | Compound | Hypothermia 3 mg/kg (NSA mice) | other results
1 | – | – | Cc1csc(CNC(=O)c2ccc3c(c2)N=C(c2sccc2C)c2ccccc2S3)c1 [drawing 1610] | −2 | –
2 | – | – | O=C(NCc1cccnc1)c1ccc2c(c1)N=C(c1ccc(F)cc1)c1ccccc1S2 [drawing 1611] | 28 | Hypothermia 0.3 mg/kg (NSA mice): 11
3 | – | – | O=C(NCc1cccs1)c1ccc2c(c1)N=C(c1ccc(Cl)s1)c1ccccc1S2 [drawing 1612] | 47 | –
4 | – | – | O=C(NCc1cccnc1)c1ccc2c(c1)N=C(c1ccc(Br)cc1)c1ccccc1S2 [drawing 1613] | 2 | –
5 | – | – | O=C(NCc1cccc(Cl)c1)c1ccc2c(c1)N=C(c1ccc(Cl)cc1)c1ccccc1S2 [drawing 1614] | −16 | –
6 | – | – | Cc1ccsc1C1=Nc2cc(C(=O)NN3CCCCC3)ccc2Sc2ccccc21 [drawing 1615] | 31 | –
7 | – | – | Cc1csc(CNC(=O)c2ccc3c(c2)N=C(c2cccc(C)n2)c2ccccc2S3)c1 [drawing 1616] | 54 | Hypothermia 0.3 mg/kg (NSA mice): 42; Hypothermia ID50 (NSA mice): 1.8 mg/kg
8 | – | – | CCCCNC(=O)c1ccc2c(c1)N=C(c1ccc(Cl)cc1)c1ccc(Cl)cc1S2 [drawing 1617] | 30 | –
9 | – | – | O=C(NCc1cccc(Cl)c1)c1ccc2c(c1)N=C(c1ccc(F)cc1)c1ccccc1S2 [drawing 1618] | 50 | Hypothermia 0.3 mg/kg (NSA mice): 16
10 | – | – | CCCCNC(=O)c1ccc2c(c1)N=C(c1ccc(Cl)cc1)c1ccccc1[S+]2[O-] (stereo not drawn) [drawing 1619] | 31 | –
11 | – | – | O=C(NCc1cccnc1)c1ccc2c(c1)N=C(c1cccc(F)c1)c1ccccc1S2 [drawing 1621] | 17 | –
12 | – | – | O=C(NCc1cccs1)c1ccc2c(c1)N=C(c1cccc(Cl)c1)c1ccccc1S2 [drawing 1622] | 61 | –
13 | – | – | O=C(NCc1cccs1)c1ccc2c(c1)N=C(c1ccccc1F)c1ccccc1S2 [drawing 1623] | 10 | –
14 | – | – | O=C(NCCC(F)(F)F)c1ccc2c(c1)N=C(c1ccc(Cl)s1)c1ccccc1S2 [drawing 1624] | 37 | –
15 | – | – | CC(C)CNC(=O)c1ccc2c(c1)N=C(c1ccc(Cl)cn1)c1ccc(F)cc1S2 [drawing 1625] | 27 | –
16 | – | – | CCCCNC(=O)c1ccc2c(c1)N=C(c1ccc(Cl)c(F)c1)c1ccccc1S2 [drawing 1626] | 79 | –
17 | – | – | CCCCNC(=O)c1ccc2c(c1)N=C(c1ccc(Cl)cn1)c1cc(F)ccc1S2 [drawing 1627] | 8 | –
18 | – | – | O=C(NCc1cccs1)c1ccc2c(c1)N=C(c1ccc(Cl)cc1)c1ccccc1S2 [drawing 1628] | 92 | Hypothermia ID50 (NSA mice): 0.9 mg/kg
19 | – | – | CCCCNC(=O)c1ccc2c(c1)N=C(c1ccc(F)cn1)c1ccccc1S2 [drawing 1629] | 54 | –
20 | – | – | O=C(NCc1ccc(F)cc1)c1ccc2c(c1)N=C(c1ccc(Cl)cc1)c1ccccc1S2 [drawing 1630] | 83 | Hypothermia 0.3 mg/kg (NSA mice): 18; Hypothermia ID50 (NSA mice): 1.8 mg/kg
21 | – | – | O=C(NCc1ccco1)c1ccc2c(c1)N=C(c1cccc(F)c1)c1ccccc1S2 [drawing 1631] | 21 | –
22 | – | – | O=C(NC1CCCCC1)c1ccc2c(c1)N=C(c1cccc(F)c1)c1ccccc1S2 [drawing 1632] | 44 | –

Row | microsomal CLint at 1 μM [1] [µL/min/mg] | microsomal CLint at 1 μM [2] [µL/min/mg] | Compound | Hypothermia 3 mg/kg (NSA mice) | other results
23 | – | – | O=C(NCc1cccnc1)c1ccc2c(c1)N=C(c1ccc(Cl)cc1)c1ccccc1S2 [drawing 1633] | 27 | –
24 | – | – | CC(C)CNC(=O)c1ccc2c(c1)N=C(c1ccc(Cl)cc1)c1ccccc1S2 [drawing 1634] | 79 | Hypothermia 0.3 mg/kg (NSA mice): 25
25 | – | – | C[C@@H]1CCC[C@H](C)N1NC(=O)c1ccc2c(c1)N=C(c1cccc(F)c1)c1ccccc1S2 [drawing 1635] | 17 | –
26 | – | – | CC(C)CNC(=O)c1ccc2c(c1)N=C(c1ccc(F)cc1)c1ccccc1S2 [drawing 1636] | 53 | Hypothermia 0.3 mg/kg (NSA mice): 14
27 | – | – | O=C(NCc1ccccn1)c1ccc2c(c1)N=C(c1ccc(Cl)cc1)c1ccccc1S2 [drawing 1637] | 42 | –
28 | – | – | O=C(NCc1ccccc1)c1ccc2c(c1)N=C(c1cccc(Cl)c1)c1ccccc1S2 [drawing 1638] | 27 | –
29 | – | – | Cc1ccsc1C1=Nc2cc(C(=O)NCc3ccco3)ccc2Sc2ccccc21 [drawing 1639] | 30 | –
30 | – | – | O=C(NCc1ccc(F)cc1)c1ccc2c(c1)N=C(C1CCCCC1)c1ccccc1S2 [drawing 1640] | 80 | Hypothermia 0.3 mg/kg (NSA mice): 24; Hypothermia ID50 (NSA mice): 1.5 mg/kg
31 | – | – | O=C(NCc1cccnc1)c1ccc2c(c1)N=C(c1cccc(Br)c1)c1ccccc1S2 [drawing 1641] | 56 | Hypothermia 0.3 mg/kg (NSA mice): 0
32 | – | – | Cc1ccsc1C1=Nc2cc(C(=O)NCc3cccs3)ccc2Sc2ccccc21 [drawing 1642] | 25 | –
33 | – | – | O=C(NCCc1cccnc1)c1ccc2c(c1)N=C(c1cccc(Cl)c1)c1ccccc1S2 [drawing 1643] | 41 | –
34 | – | – | CC(C)CNC(=O)c1ccc2c(c1)N=C(c1ccc(Cl)s1)c1ccc(F)cc1S2 [drawing 1644] | 12 | –
35 | – | – | O=C(NCc1ccc(F)cc1)c1ccc2c(c1)N=C(c1ccc(Cl)cc1)c1ccccc1[S+]2[O-] (stereo not drawn) [drawing 1645] | 22 | –
36 | – | – | CC(C)CNC(=O)c1ccc2c(c1)N=C(c1cccc(Cl)c1)c1ccccc1S2 [drawing 1646] | 54 | –
37 | – | – | O=C(NCc1ccccc1)c1ccc2c(c1)N=C(c1ccc(Cl)cc1)c1ccccc1S2 [drawing 1648] | 68 | –
38 | – | – | CC(C)CCNC(=O)c1ccc2c(c1)N=C(c1ccccn1)c1ccccc1S2 [drawing 1649] | 21 | –
39 | – | – | O=C(NCc1ccco1)c1ccc2c(c1)N=C(c1ccc(Cl)cc1)c1ccccc1S2 [drawing 1650] | 79 | Hypothermia 0.3 mg/kg (NSA mice): 28; Hypothermia ID50 (NSA mice): 0.9 mg/kg
40 | – | – | O=C(NN1CCCCC1)c1ccc2c(c1)N=C(c1ccc(Cl)cn1)c1ccccc1S2 [drawing 1651] | 57 | –
41 | – | – | O=C(NCc1cccc(Cl)c1)c1ccc2c(c1)N=C(N1CCC(F)(F)CC1)c1ccccc1S2 [drawing 1652] | 19 | Hypothermia 0.3 mg/kg (NSA mice): −31
42 | 105 | 14 | O=C(NCCCC(F)(F)F)c1ccc2c(c1)N=C(c1ccc(Cl)cc1F)c1ccccc1S2 [drawing 1653] | – | –
43 | 136 | 31 | O=C(NCCCC(F)(F)F)c1ccc2c(c1)N=C(c1ccc(Cl)s1)c1ccccc1S2 [drawing 1655] | – | –
44 | 63 | 11 | CC(C)CNC(=O)c1ccc2c(c1)N=C(c1ccc(Cl)cc1)c1ccc(F)cc1S2 [drawing 1657] | – | –

Row | microsomal CLint at 1 μM [1] [µL/min/mg] | microsomal CLint at 1 μM [2] [µL/min/mg] | Compound | Hypothermia 3 mg/kg (NSA mice) | other results
45 | 79 | 9 | CCCCNC(=O)c1ccc2c(c1)N=C(c1ccc(Cl)cc1)c1ccc(F)cc1S2 [drawing 1663] | – | –
46 | 144 | 24 | COc1cccc(C2=Nc3cc(C(=O)NCCCC(F)(F)F)ccc3Sc3ccccc32)n1 [drawing 1667] | – | –
47 | 63 | 22 | CCCCNC(=O)c1ccc2c(c1)N=C(c1ccc(Cl)s1)c1cc(Cl)ccc1S2 [drawing 1678] | – | –
48 | 56 | 5 | CC(C)CNC(=O)c1ccc2c(c1)N=C(c1ccc(Cl)s1)c1ccc(Cl)cc1S2 [drawing 1679] | – | –
49 | 63 | 16 | CCCCNC(=O)c1ccc2c(c1)N=C(c1cccc(Cl)c1)c1cc(F)ccc1S2 [drawing 1682] | – | –
50 | 52 | 13 | CCCCNC(=O)c1ccc2c(c1)N=C(c1ccc(Cl)cc1)c1cc(Cl)ccc1S2 [drawing 1688] | – | –
51 | 204 | 35 | Cc1cccc(C2=Nc3cc(C(=O)NCC(C)C)ccc3Sc3ccccc32)n1 [drawing 1692] | – | –
52 | 55 | 15 | CCCCNC(=O)c1ccc2c(c1)N=C(c1ccc(Cl)s1)c1ccc(Cl)cc1S2 [drawing 1694] | – | –
53 | 39 | 21 | O=C(NNCC(F)(F)F)c1ccc2c(c1)N=C(c1ccc(Cl)cc1)c1ccccc1S2 [drawing 1696] | – | –
54 | 124 | 30 | Cc1ccc(CNC(=O)c2ccc3c(c2)N=C(c2ccc(Cl)s2)c2ccccc2S3)o1 [drawing 1697] | – | –
55 | 210 | 157 | CCN(CCNC(=O)c1ccc2c(c1)N=C(c1ccc(Cl)cc1)c1ccccc1S2)c1ccccc1 [drawing 1698] | – | –
56 | 158 | 20 | O=C(NC1CCC(F)(F)CC1)c1ccc2c(c1)N=C(c1ccc(Cl)s1)c1ccccc1S2 [drawing 1699] | – | –
57 | 297 | 379 | Cc1ccsc1C1=Nc2cc(C(=O)NCCCC(F)(F)F)ccc2Sc2ccccc21 [drawing 1701] | – | –
58 | 74 | 12 | CCCCNC(=O)c1ccc2c(c1)N=C(c1ccc(Cl)cc1)c1cc(F)ccc1S2 [drawing 1702] | – | –
59 | 86 | 13 | O=C(NCCCC(F)(F)F)c1ccc2c(c1)N=C(c1ccc(Cl)cc1)c1ccccc1S2 [drawing 1703] | – | –
60 | 147 | 37 | Cc1ccc(CNC(=O)c2ccc3c(c2)N=C(c2cccc(Cl)c2)c2ccccc2S3)o1 [drawing 1705] | – | –
61 | 90 | 27 | Cc1csc(CNC(=O)c2ccc3c(c2)N=C(c2ccc(Cl)s2)c2ccccc2S3)c1 [drawing 1707] | – | –
62 | 160 | 42 | Cc1csc(CNC(=O)c2ccc3c(c2)N=C(c2cccc(F)c2)c2ccccc2S3)c1 [drawing 1709] | – | –
63 | 111 | 41 | CCCCNC(=O)c1ccc2c(c1)N=C(c1ccc(Cl)s1)c1cc(F)ccc1S2 [drawing 1710] | – | –
64 | 258 | 39 | Cc1ccc(CNC(=O)c2ccc3c(c2)N=C(c2ccc(F)cc2)c2ccccc2S3)o1 [drawing 1711] | – | –
